Reference: patent publication US9487502B2, “Chemical compounds” (Syngenta Limited, priority 2013, dated 2016)

Experiments:
Assay type in all cases: in vivo
Abutilon theophrasti [1] = assay: Pre-emergence herbicidal activity, ABUTH; set-up: key: 5=total damage to plant; 0=no damage to plant; settings: 1000 g/Ha, sprayed pre-emergence, evaluated after 13 days, scale 0-5
Description: (§1) Seeds of a variety of test species were sown in standard soil in pots. After cultivation for one day (pre-emergence) under controlled conditions in a glasshouse (at 24/16° C., day/night; 14 hours light; 65% humidity), the plants were sprayed with an aqueous spray solution derived from the formulation of the technical active ingredient in acetone/water (50:50) solution containing 0.5% Tween 20 (polyoxyethelyene sorbitan monolaurate, CAS RN 9005-64-5). The test plants were then grown in a glasshouse under controlled conditions (at 24/16° C., day/night; 14 hours light; 65% humidity) and watered twice daily. After 13 days, the test was evaluated (5=total damage to plant; 0=no damage to plant).

Amaranthus retroflexus [2] = assay: Pre-emergence herbicidal activity, AMARE; set-up: key: 5=total damage to plant; 0=no damage to plant; settings: 1000 g/Ha, sprayed pre-emergence, evaluated after 13 days, scale 0-5
Description: as §1

Setaria faberi [3] = assay: Pre-emergence herbicidal activity, SETFA; set-up: key: 5=total damage to plant; 0=no damage to plant; settings: 1000 g/Ha, sprayed pre-emergence, evaluated after 13 days, scale 0-5
Description: as §1

Echinochloa crus-galli [4] = assay: Pre-emergence herbicidal activity, ECHCG; set-up: key: 5=total damage to plant; 0=no damage to plant; settings: 1000 g/Ha, sprayed pre-emergence, evaluated after 13 days, scale 0-5
Description: as §1

Alopecurus myosuroides [5] = assay: Pre-emergence herbicidal activity, ALOMY; settings: 1000 g/Ha, sprayed pre-emergence, evaluated after 13 days, scale 0-5
Description: as §1

Zea mays [6] = assay: Pre-emergence herbicidal activity, ZEAMX; settings: 1000 g/Ha, sprayed pre-emergence, evaluated after 13 days, scale 0-5
Description: as §1

Setaria faberi [7] = assay: Post-emergence herbicidal activity, SETFA; set-up: key: 5=total damage to plant; 0=no damage to plant; settings: 1000 g/Ha, sprayed post-emergence (8 days cultivation), evaluated after 13 days, scale 0-5
Description: (§2) Seeds of a variety of test species were sown in standard soil in pots. After 8 days cultivation (post-emergence) under controlled conditions in a glasshouse (at 24/16° C., day/night; 14 hours light; 65% humidity), the plants were sprayed with an aqueous spray solution derived from the formulation of the technical active ingredient in acetone/water (50:50) solution containing 0.5% Tween 20 (polyoxyethelyene sorbitan monolaurate, CAS RN 9005-64-5). The test plants were then grown in a glasshouse under controlled conditions (at 24/16° C., day/night; 14 hours light; 65% humidity) and watered twice daily. After 13 days, the test was evaluated (5=total damage to plant; 0=no damage to plant).

Abutilon theophrasti [8] = assay: Post-emergence herbicidal activity, ABUTH; set-up: key: 5=total damage to plant; 0=no damage to plant; settings: 1000 g/Ha, sprayed post-emergence (8 days cultivation), evaluated after 13 days, scale 0-5
Description: as §2

Amaranthus retroflexus [9] = assay: Post-emergence herbicidal activity, AMARE; set-up: key: 5=total damage to plant; 0=no damage to plant; settings: 1000 g/Ha, sprayed post-emergence (8 days cultivation), evaluated after 13 days, scale 0-5
Description: as §2

Alopecurus myosuroides [10] = assay: Post-emergence herbicidal activity, ALOMY; set-up: key: 5=total damage to plant; 0=no damage to plant; settings: 1000 g/Ha, sprayed post-emergence (8 days cultivation), evaluated after 13 days, scale 0-5
Description: as §2

Echinochloa crus-galli [11] = assay: Post-emergence herbicidal activity, ECHCG; set-up: key: 5=total damage to plant; 0=no damage to plant; settings: 1000 g/Ha, sprayed post-emergence (8 days cultivation), evaluated after 13 days, scale 0-5
Description: as §2

Zea mays [12] = assay: Post-emergence herbicidal activity, ZEAMX; set-up: key: 5=total damage to plant; 0=no damage to plant; settings: 1000 g/Ha, sprayed post-emergence (8 days cultivation), evaluated after 13 days, scale 0-5
Description: as §2

Structure (SMILES)	ABUTH damage score, application pre-emergence (Abutilon theophrasti [1])	AMARE damage score, application pre-emergence (Amaranthus retroflexus [2])	SETFA damage score, application pre-emergence (Setaria faberi [3])	ECHCG damage score, application pre-emergence (Echinochloa crus-galli [4])	ALOMY damage score, application pre-emergence (Alopecurus myosuroides [5])	ZEAMX damage score, application pre-emergence (Zea mays [6])	SETFA damage score, application post-emergence (Setaria faberi [7])	ABUTH damage score, application post-emergence (Abutilon theophrasti [8])	AMARE damage score, application post-emergence (Amaranthus retroflexus [9])	ALOMY damage score, application post-emergence (Alopecurus myosuroides [10])	ECHCG damage score, application post-emergence (Echinochloa crus-galli [11])	ZEAMX damage score, application post-emergence (Zea mays [12])
CCCOC1C(O)N(c2cc(C(C)(C)C)ncn2)C(=O)N1C (stereo not drawn) [Example A10]	4	5	4	2	4	2	4	5	5	4	4	2
COC1C(O)N(c2cc(C(C)(C)C)ncn2)C(=O)N1C (stereo not drawn) [Example A11]	4	5	4	3	3	1	5	5	5	4	4	1
CCC1C(O)N(c2cc(C(C)(C)C)ncn2)C(=O)N1C (stereo not drawn) [Example A16]	5	5	5	4	2	2	5	5	5	3	5	4
CCCC1C(O)N(c2cc(C(C)(C)C)ncn2)C(=O)N1C (stereo not drawn) [Example A17]	4	5	5	5	4	3	5	5	5	3	5	4
CCOC1C(O)N(c2cc(C(C)(C)C#N)ncn2)C(=O)N1C (stereo not drawn) [Example A18]	5	5	4	3	1	2	5	5	5	4	5	5
CCC1C(O)N(c2cc(C(C)(C)C)ncn2)C(=O)N1OC (stereo not drawn) [Example A19]	3	5	5	5	4	3	2	5	5	3	3	5
CC1C(O)N(c2cc(C(C)(C)F)ncn2)C(=O)N1C (stereo not drawn) [Example A20]	5	5	5	4	3	4	5	5	5	4	5	4
CON1C(=O)N(c2cc(C(C)(C)F)ncn2)C(O)C1C (stereo not drawn) [Example A21]	5	5	5	4	3	3	5	5	5	5	5	4
CN1CC(O)N(c2cc(C(C)(C)F)ncn2)C1=O (stereo not drawn) [Example A22]	5	5	5	5	4	4	5	5	5	5	5	5
CON1CC(O)N(c2cc(C(C)(C)C)ncn2)C1=O (stereo not drawn) [Example A23]	5	5	2	4	1	1	5	5	4	1	4	4
CC1C(O)N(c2cc(C(C)(C)C#N)ncn2)C(=O)N1C (stereo not drawn) [Example A24]	5	5	5	5	4	2	5	5	5	4	5	5
CON1C(=O)N(c2cc(C(C)(C)C#N)ncn2)C(O)C1C (stereo not drawn) [Example A25]	5	5	5	5	4	4	5	5	5	5	5	5
